Measurements published in ChEMBL document CHEMBL1201862, “PubChem BioAssay data set” (2004).
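96-well plates; 48 h exposure; 5 concentrations. Endpoints by linear interpolation between flanking doses. Not reached: highest tested concentration assigned. GI50 = concentration required for 50% inhibition of growth.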 Active and inactive are the calls of the source. Cut-off read from the data, not from the text of the source: active = GI50 up to about 1.1 µM and inactive = higher.

Columns and labels:
Assay in all cases: NCI-60 cell line screen, 48 h
NCI/ADR-RES = system: NCI/ADR-RES
SK-MEL-5 = system: SK-MEL-5
RXF 393 = system: RXF 393
K562 = system: K562
RPMI-8226 = system: RPMI-8226
IGROV-1 = system: IGROV-1
OVCAR-4 = system: OVCAR-4
T47D = system: T47D
SNB-19 = system: SNB-19
LOX IMVI = system: LOX IMVI
MOLT-4 = system: MOLT-4
HCC 2998 = system: HCC 2998
COLO 205 = system: COLO 205
UO-31 = system: UO-31
SW-620 = system: SW-620
NCI-H460 = system: NCI-H460
HT-29 = system: HT-29
OVCAR-5 = system: OVCAR-5
PC-3 = system: PC-3
SN12C = system: SN12C

SMILES	GI50 (NCI/ADR-RES)	GI50 (SK-MEL-5)	GI50 (RXF 393)	GI50 (K562)	GI50 (RPMI-8226)	GI50 (IGROV-1)	GI50 (OVCAR-4)	GI50 (T47D)	GI50 (SNB-19)	GI50 (LOX IMVI)	GI50 (MOLT-4)	GI50 (HCC 2998)	GI50 (COLO 205)	GI50 (UO-31)	GI50 (SW-620)	GI50 (NCI-H460)	GI50 (HT-29)	GI50 (OVCAR-5)	GI50 (PC-3)	GI50 (SN12C)
CSC1=C(C(=O)Nc2ccc(C)cc2)C(N)=NC1=O	> 100 µM (inactive)	> 100 µM (inactive)	> 100 µM (inactive)	> 100 µM (inactive)	> 100 µM (inactive)	> 100 µM (inactive)	> 100 µM (inactive)	> 100 µM (inactive)	> 100 µM (inactive)	> 100 µM (inactive)	> 100 µM (inactive)	> 100 µM (inactive)	> 100 µM (inactive)	> 100 µM (inactive)	> 100 µM (inactive)	> 100 µM (inactive)	> 100 µM (inactive)			
O=C(c1ccccc1)c1ccc(N2C(=O)/C(=C/c3ccccc3S)N=C2c2ccccc2)c(N2C(=O)/C(=C/c3ccccc3S)N=C2c2ccccc2)c1	32.4 µM (inactive)	29.4 µM (inactive)		48.9 µM (inactive)	21.9 µM (inactive)	46.9 µM (inactive)	38.3 µM (inactive)	43.3 µM (inactive)	41.5 µM (inactive)	24.9 µM (inactive)	21.4 µM (inactive)	35.7 µM (inactive)	60.1 µM (inactive)	84.5 µM (inactive)	43.2 µM (inactive)	47.6 µM (inactive)	86.5 µM (inactive)	> 100 µM (inactive)	42.6 µM (inactive)	> 100 µM (inactive)
Cc1cc(=O)[nH]c(-n2[nH]c3c(c2=O)CCCC3)n1		82 µM (inactive)	14.3 µM (inactive)	52.2 µM (inactive)	74.1 µM (inactive)	97.3 µM (inactive)	> 100 µM (inactive)	> 100 µM (inactive)	> 100 µM (inactive)		60.8 µM (inactive)		88.9 µM (inactive)	59.6 µM (inactive)	56 µM (inactive)	25.9 µM (inactive)	44.5 µM (inactive)	69 µM (inactive)	68.1 µM (inactive)	77.8 µM (inactive)
Cc1cc(C)n(CN(Cn2nc(C)cc2C)c2ccc(N(Cn3nc(C)cc3C)Cn3nc(C)cc3C)cc2)n1	19.1 µM (inactive)	16.5 µM (inactive)	20 µM (inactive)	18.7 µM (inactive)	13.4 µM (inactive)	31.6 µM (inactive)	17.2 µM (inactive)	23.8 µM (inactive)	24 µM (inactive)		28 µM (inactive)		17.7 µM (inactive)	28.4 µM (inactive)	16.6 µM (inactive)	24.6 µM (inactive)	21.9 µM (inactive)	24.7 µM (inactive)	23.7 µM (inactive)	27.4 µM (inactive)
O=C(O)c1ccc(C(O)(c2ccccc2)c2ccccc2)cc1	> 100 µM (inactive)	> 100 µM (inactive)		> 100 µM (inactive)	> 100 µM (inactive)	> 100 µM (inactive)	> 100 µM (inactive)	> 100 µM (inactive)	> 100 µM (inactive)	> 100 µM (inactive)	> 100 µM (inactive)		> 100 µM (inactive)	> 100 µM (inactive)				> 100 µM (inactive)	> 100 µM (inactive)	> 100 µM (inactive)
CN(C)c1nc2oc(-c3ccccc3)c(-c3ccccc3)c2c2nncn12	> 100 µM (inactive)		> 100 µM (inactive)	> 100 µM (inactive)	> 100 µM (inactive)	> 100 µM (inactive)	> 100 µM (inactive)	> 100 µM (inactive)	> 100 µM (inactive)	> 100 µM (inactive)	> 10 µM (inactive)	> 100 µM (inactive)	> 100 µM (inactive)	> 100 µM (inactive)	> 100 µM (inactive)		> 100 µM (inactive)	> 100 µM (inactive)		> 100 µM (inactive)
C1=N/CCNCCNCC/N=C/c2ccccc2OCc2cccc(n2)COc2ccccc2/1	23.1 µM (inactive)	39.1 µM (inactive)	30.3 µM (inactive)	24.7 µM (inactive)	28.4 µM (inactive)	52.6 µM (inactive)	47 µM (inactive)	57.4 µM (inactive)	52.5 µM (inactive)		27.4 µM (inactive)		> 100 µM (inactive)	72.8 µM (inactive)	36.2 µM (inactive)	34.4 µM (inactive)	25.6 µM (inactive)	> 100 µM (inactive)	34 µM (inactive)	43.8 µM (inactive)
CSC1=C(C#N)C(=O)N(c2ccc(C)cc2)C(=O)C1C#N (centres undefined)		> 100 µM (inactive)	> 100 µM (inactive)	> 100 µM (inactive)	> 100 µM (inactive)	> 100 µM (inactive)	> 100 µM (inactive)	41.2 µM (inactive)	> 100 µM (inactive)	> 100 µM (inactive)	> 100 µM (inactive)	> 100 µM (inactive)	> 100 µM (inactive)	> 100 µM (inactive)	> 100 µM (inactive)	> 100 µM (inactive)	> 100 µM (inactive)	> 100 µM (inactive)	> 100 µM (inactive)	> 100 µM (inactive)
COC1/C=C/C(C)C(C(C)C(OC)C(C)CCC(=O)C(C)C(CC(=O)O)OC)OC(=O)/C=C/C=C(\C)CC(OC)C(OC)C2=CC(=O)O[C@@H](C(C)C(OC)CC(OC)/C=C/C(C)C(O)C1)[C@H]2O (some centres undefined)	0.149 µM (active)	0.0536 µM (active)		0.0564 µM (active)	0.0959 µM (active)	0.0129 µM (active)	0.153 µM (active)	0.135 µM (active)	0.217 µM (active)	0.0188 µM (active)	0.106 µM (active)	0.0631 µM (active)	0.0399 µM (active)	0.0382 µM (active)	0.0242 µM (active)	0.0311 µM (active)	0.026 µM (active)	0.265 µM (active)	0.0382 µM (active)	0.406 µM (active)
Cc1c2c(n(CC(c3ccccc3)c3ccccc3)c1C)NN=C(C#N)S2(=O)=O	> 100 µM (inactive)	> 100 µM (inactive)			> 100 µM (inactive)	> 100 µM (inactive)	> 100 µM (inactive)	> 100 µM (inactive)	> 100 µM (inactive)	> 100 µM (inactive)	37.7 µM (inactive)	> 100 µM (inactive)	> 100 µM (inactive)	> 100 µM (inactive)	> 100 µM (inactive)	> 100 µM (inactive)	> 100 µM (inactive)	> 100 µM (inactive)	> 100 µM (inactive)	> 100 µM (inactive)
COc1nc(=O)n(C2CC(N=[N+]=[N-])C(CO)O2)cc1C (centres undefined)	> 100 µM (inactive)	> 100 µM (inactive)		> 100 µM (inactive)		> 100 µM (inactive)	> 100 µM (inactive)	> 100 µM (inactive)	> 100 µM (inactive)	> 100 µM (inactive)	> 100 µM (inactive)			52 µM (inactive)	> 100 µM (inactive)	> 100 µM (inactive)	> 100 µM (inactive)	> 100 µM (inactive)	> 100 µM (inactive)	> 100 µM (inactive)
OC[C@]1(n2nc3ccccc3n2)OC[C@@H]1c1ccccc1	57.3 µM (inactive)	83.2 µM (inactive)		56.9 µM (inactive)	26.9 µM (inactive)	37.2 µM (inactive)	16.9 µM (inactive)	36 µM (inactive)	> 100 µM (inactive)	42.5 µM (inactive)	33.7 µM (inactive)	> 100 µM (inactive)	55.5 µM (inactive)	95.3 µM (inactive)		76.2 µM (inactive)	29.6 µM (inactive)	91.4 µM (inactive)	70 µM (inactive)	43.1 µM (inactive)
CCNC(=O)Nc1ccccn1		> 100 µM (inactive)	> 100 µM (inactive)	> 100 µM (inactive)		> 100 µM (inactive)	> 100 µM (inactive)	> 100 µM (inactive)	> 100 µM (inactive)		> 100 µM (inactive)	> 100 µM (inactive)	> 100 µM (inactive)	> 100 µM (inactive)	> 100 µM (inactive)	> 100 µM (inactive)	> 100 µM (inactive)	> 100 µM (inactive)	> 100 µM (inactive)	> 100 µM (inactive)
COC(=O)C12OC3CO[Si](C(C)C)(C(C)C)O[Si](C(C)C)(C(C)C)OC3C1Oc1nc(=O)ccn12 (centres undefined)	15.6 µM (inactive)	16.2 µM (inactive)	16.6 µM (inactive)	15.4 µM (inactive)	13.7 µM (inactive)	11.6 µM (inactive)	17.1 µM (inactive)	18.8 µM (inactive)	17.3 µM (inactive)	17.4 µM (inactive)	12.1 µM (inactive)		18.7 µM (inactive)	16.3 µM (inactive)	16 µM (inactive)		15.4 µM (inactive)	15.2 µM (inactive)	15.3 µM (inactive)	17.9 µM (inactive)
Oc1ccc(-c2nc3ccccc3s2)cc1	31.8 µM (inactive)		24 µM (inactive)	29 µM (inactive)	27.1 µM (inactive)	25.7 µM (inactive)	48.1 µM (inactive)	21.5 µM (inactive)	55.1 µM (inactive)	21.4 µM (inactive)	25.8 µM (inactive)		45.1 µM (inactive)	51.5 µM (inactive)	65.5 µM (inactive)	38.1 µM (inactive)	42.3 µM (inactive)	49.8 µM (inactive)	32.1 µM (inactive)	38 µM (inactive)
